From patent US20240058457A1, “BTK DEGRADER” (Newave Pharmaceutical Inc., priority 2020, published 2024)

Molecular target: T1, BTK (Homo sapiens, UniProt Q06187)
T1 construct: endogenous in cells; host or cells: Rec-1 cells (ATCC) / Ramos cells
Assay: BTK HTRF degradation assay
Type: cell-based
Details: treatment time 24 h; Cisbio Total-BTK HTRF; Rec-1 / Ramos cells
Protocol: Rec-1 cells were obtained from American Type Culture Collection and were grown in RPMI-1640 media (ATCC, 30-2001) supplemented with 10% heat-inactivated FBS (Corning Premium Fetal Bovine Serum from Fisher, MT35015CV). Compounds of the present invention were added to 50,000 Ramos cells in round-bottom 96 well plates with a final DMSO concentration of […] and were incubated at 37° C. 5% CO2 for different time. BTK levels were determined using Cisbio Total-BTK HTRF ([…] Time-Resolved Fluorescence) kit (63ADK064PEG) according to manufacturer's protocol. Briefly, cells were incubated in 1× supplied lysis buffer for 30 minutes. In an opaque white low volume 96 well plate (Cisbio, 66PL96005), cell lysate was combined with two different specific BTK antibodies, one conjugated with Eu3+-Cryptate FRET donor and one conjugated with d2 FRET acceptor. Assay controls include wells containing cell lysate with only the Eu3+-Cryptate FRET donor antibody and wells containing both HTRF antibodies and lysis buffer without cells or control lysate provided by Cisbio. HTRF ratio was calculated as (acceptor signal at 665 nm/donor signal at 620 nm)×[…]. Background HTRF levels were determined from the control well containing the donor, but no acceptor, antibody. Background HTRF levels were subtracted from all samples. Readouts were reported as HTRF levels relative to HTRF levels of DMSO-treated cells. Four-parameter non-linear regressions were performed in GraphPad Prism 7.02 to obtain DC50 values.

T1 sequence (Q06187 whole entry): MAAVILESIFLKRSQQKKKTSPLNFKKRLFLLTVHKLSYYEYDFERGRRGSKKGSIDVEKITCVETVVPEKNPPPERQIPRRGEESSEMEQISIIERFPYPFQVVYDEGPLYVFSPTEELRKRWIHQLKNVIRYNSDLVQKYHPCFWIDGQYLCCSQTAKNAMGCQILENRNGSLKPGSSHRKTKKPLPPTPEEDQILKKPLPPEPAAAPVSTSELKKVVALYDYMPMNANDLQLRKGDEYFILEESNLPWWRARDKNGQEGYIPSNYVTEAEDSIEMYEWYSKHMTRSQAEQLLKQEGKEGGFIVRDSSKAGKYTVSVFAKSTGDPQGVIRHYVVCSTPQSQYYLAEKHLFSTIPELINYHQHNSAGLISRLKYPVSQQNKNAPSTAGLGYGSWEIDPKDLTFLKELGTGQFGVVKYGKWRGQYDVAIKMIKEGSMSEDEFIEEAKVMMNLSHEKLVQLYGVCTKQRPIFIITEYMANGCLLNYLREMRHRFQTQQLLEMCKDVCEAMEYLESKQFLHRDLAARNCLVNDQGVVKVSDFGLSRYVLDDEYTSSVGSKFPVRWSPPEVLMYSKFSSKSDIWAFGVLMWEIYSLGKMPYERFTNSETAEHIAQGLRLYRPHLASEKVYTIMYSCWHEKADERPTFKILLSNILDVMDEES

| Compound | DC50 [nM] | Dmax % [%] | Dmax [%] |
| --- | --- | --- | --- |
| 5-{4-[(3S)-4-{6-[(6-tert-butyl-2′. {4,4-dimethyl-9-oxo-1,10-diazatricyclo[6.4.0.0^{2,6}]dodeca-2(6),7-dien-10-yl}-3′-(hydroxymethyl)-[3,4′-bipyridin]-5-yl)amino]pyridin-3-yl}-3-methylpiperazin-1-yl]piperidin-1-yl}-2-(2,6-dioxopiperidin-3-yl)isoindole-1,3-dione [Example 12] | > 1000 | 7 | – |
| C[C@H]1CN(C2CN(c3ccc4c(c3)C(=O)N(C3CCC(=O)NC3=O)C4=O)C2)CCN1c1ccc(Nc2cc(-c3ccnc(N4CCn5c(cc6c5CC(C)(C)C6)C4=O)c3CO)cn(C)c2=O)nc1 (stereo partly drawn) [Example 1, 5-{3-[(3S)-4-{6-[(2′-{4,4-dimethyl-9-oxo-1,10-diazatricyclo[6.4.0.0^{2,6}]dodeca-2(6),7-dien-10-yl}-3′-(hydroxymethyl)-1-methyl-6-oxo-[3,4′-bipyridin]-5-yl)amino]pyridin-3-yl}-3-methylpiperazin-1-yl]azetidin-1-yl}-2-(2,6-dioxopiperidin-3-yl)isoindole-1,3-dione] | 1.16 | 100 | – |
| C[C@H]1CN(C2CC(C#Cc3ccc4c(c3)C(=O)N(C3CCC(=O)NC3=O)C4=O)C2)CCN1c1ccc(Nc2cc(-c3ccnc(N4CCn5c(cc6c5CC(C)(C)C6)C4=O)c3CO)cn(C)c2=O)nc1 (stereo partly drawn) [Example 3, 5-((3-((S)-4-(6-((2′-(7,7-dimethyl-1-oxo-1,3,4,6,7,8-hexahydro-2H-cyclopenta[4,5]pyrrolo[1,2-a]pyrazin-2-yl)-3′-(hydroxymethyl)-1-methyl-6-oxo-1,6-dihydro-[3,4′-bipyridin]-5-yl)amino)pyridin-3-yl)-3-methylpiperazin-1-yl)cyclobutyl)ethynyl)-2-(2,6-dioxopiperidin-3-yl)isoindoline-1,3-dione] | 2.04 | – | 97 |
| C[C@H]1CN(C2CCN(c3ccc4c(c3)C(=O)N(C3CCC(=O)NC3=O)C4=O)CC2)CCN1c1ccc(Nc2cc(-c3ccnc(N4CCc5c(sc6c5CCCC6)C4=O)c3CO)cn(C)c2=O)nc1 (stereo partly drawn) [Example 9, 2-(2,6-dioxopiperidin-3-yl)-5-{4-[(3S)-4-(6-{[3′-(hydroxymethyl)-1-methyl-6-oxo-2′-{6-oxo-8-thia-5-azatricyclo[7.4.0.0^{2,7}]trideca-1(9),2(7)-dien-5-yl}-[3,4′-bipyridin]-5-yl]amino}pyridin-3-yl)-3-methylpiperazin-1-yl]piperidin-1-yl}isoindole-1,3-dione] | 0.9 | 99 | – |
| Cc1c(-c2cc(Nc3ccc(N4CCN(C5CCN(c6ccc7c(c6)C(=O)N(C6CCC(=O)NC6=O)C7=O)CC5)C[C@@H]4C)cn3)c(=O)n(C)c2)ccnc1N1CCn2c(cc3c2CC(C)(C)C3)C1=O (stereo partly drawn) [Example 10, 5-{4-[(3S)-4-{6-[(2′-{4,4-dimethyl-9-oxo-1,10-diazatricyclo[6.4.0.0^{2,6}]dodeca-2(6),7-dien-10-yl}-1,3′-dimethyl-6-oxo-[3,4′-bipyridin]-5-yl)amino]pyridin-3-yl}-3-methylpiperazin-1-yl]piperidin-1-yl}-2-(2,6-dioxopiperidin-3-yl)isoindole-1,3-dione] | 4.63 | 99 | – |
| C[C@H]1CN(C2CCN(c3ccc4c(c3)C(=O)N(C3CCC(=O)NC3=O)C4=O)CC2)CCN1c1ccc(Nc2cc(-c3ccnc(N4CCc5c(sc6c5CCCC6)C4=O)c3CO)cn(C)c2=O)nc1 (stereo partly drawn) [Example 11, 2-(2,6-dioxopiperidin-3-yl)-5-{4-[(3S)-4-(6-{[3′-(hydroxymethyl)-1-methyl-6-oxo-2′-{6-oxo-8-thia-5-azatricyclo[7.4.0.0^{2,7}]trideca-1(9),2(7)-dien-5-yl}-[3,4′-bipyridin]-5-yl]amino}pyridin-3-yl)-3-methylpiperazin-1-yl]piperidin-1-yl}isoindole-1,3-dione] | 9.49 | 99 | – |
| C[C@H]1CN(C2CCN(c3ccc4c(c3)C(=O)N(C3CCC(=O)NC3=O)C4=O)CC2)CCN1c1ccc(Nc2cc(-c3ccnc(N4CCn5c(cc6c5CC(C)(C)C6)C4=O)c3CO)ccn2)nc1 (stereo partly drawn) [Example 13, 5-{4-[(3S)-4-{6-[(2′-{4,4-dimethyl-9-oxo-1,10-diazatricyclo[6.4.0.0^{2,6}]dodeca-2(6),7-dien-10-yl}-3′-(hydroxymethyl)-[4,4′-bipyridin]-2-yl)amino]pyridin-3-yl}-3-methylpiperazin-1-yl]piperidin-1-yl}-2-(2,6-dioxopiperidin-3-yl)isoindole-1,3-dione] | 4.4 | 98 | – |
| COc1ncc(-c2ccnc(N3CCn4c(cc5c4CC(C)(C)C5)C3=O)c2CO)cc1Nc1ccc(N2CCN(C3CCN(c4ccc5c(c4)C(=O)N(C4CCC(=O)NC4=O)C5=O)CC3)C[C@@H]2C)cn1 (stereo partly drawn) [Example 14, 5-{4-[(3S)-4-{6-[(2′-{4,4-dimethyl-9-oxo-1,10-diazatricyclo[6.4.0.0^{2,6}]dodeca-2(6),7-dien-10-yl}-3′-(hydroxymethyl)-6-methoxy-[3,4′-bipyridin]-5-yl)amino]pyridin-3-yl}-3-methylpiperazin-1-yl]piperidin-1-yl}-2-(2,6-dioxopiperidin-3-yl)isoindole-1,3-dione] | 1.15 | 94 | – |
| C[C@H]1CN(C2CCN(c3ccc4c(c3)C(=O)N(C3CCC(=O)NC3=O)C4=O)CC2)CCN1c1ccc(Nc2cc(-c3ccnc(N4CCn5c(cc6c5CC(C)(C)C6)C4=O)c3CO)ncn2)nc1 (stereo partly drawn) [Example 15, 5-{4-[(3S)-4-(6-{[6-(2-{4,4-dimethyl-9-oxo-1,10-diazatricyclo[6.4.0.0^{2,6}]dodeca-2(6),7-dien-10-yl}-3-(hydroxymethyl)pyridin-4-yl)pyrimidin-4-yl]amino}pyridin-3-yl)-3-methylpiperazin-1-yl]piperidin-1-yl}-2-(2,6-dioxopiperidin-3-yl)isoindole-1,3-dione] | 21.7 | 98 | – |
| C[C@H]1CN([C@@H]2CCN3c4ccc5c(c4OC[C@H]3C2)C(=O)N(C2CCC(=O)NC2=O)C5=O)CCN1c1ccc(Nc2cc(-c3ccnc(N4CCn5c(cc6c5CC(C)(C)C6)C4=O)c3CO)cn(C)c2=O)nc1 (stereo partly drawn) [Example 16, (5aR,7R)-7-((S)-4-(6-((2′-(7,7-dimethyl-1-oxo-1,3,4,6,7,8-hexahydro-2H-cyclopenta[4,5]pyrrolo[1,2-a]pyrazin-2-yl)-3′-(hydroxymethyl)-1-methyl-6-oxo-1,6-dihydro-[3,4′-bipyridin]-5-yl)amino)pyridin-3-yl)-3-methylpiperazin-1-yl)-2-(2,6-dioxopiperidin-3-yl)-5,5a,6,7,8,9-hexahydro-1H-pyrido[1′,2′:4,5][1,4]oxazino[2,3-e]isoindole-1,3(2H)-dione] | 29.6 | – | 97 |
| C[C@H]1CN([C@H]2CCN3c4ccc5c(c4OC[C@H]3C2)C(=O)N(C2CCC(=O)NC2=O)C5=O)CCN1c1ccc(Nc2cc(-c3ccnc(N4CCn5c(cc6c5CC(C)(C)C6)C4=O)c3CO)cn(C)c2=O)nc1.Cl (stereo partly drawn) [Example 17, hydrochloride] | 3.58 | – | – |
| C[C@H]1CN([C@H]2CCN3c4ccc5c(c4OC[C@H]3C2)C(=O)N(C2CCC(=O)NC2=O)C5=O)CCN1c1ccc(Nc2cc(-c3ccnc(N4CCn5c(cc6c5CC(C)(C)C6)C4=O)c3CO)cn(C)c2=O)nc1.Cl (stereo partly drawn) [Example 17] | – | 95 | – |
| C[C@H]1CN([C@H]2CCN3c4ccc5c(c4OC[C@@H]3C2)C(=O)N(C2CCC(=O)NC2=O)C5=O)CCN1c1ccc(Nc2cc(-c3ccnc(N4CCn5c(cc6c5CC(C)(C)C6)C4=O)c3CO)cn(C)c2=O)nc1.Cl (stereo partly drawn) [Example 18, hydrochloride] | 22.8 | – | – |
| C[C@H]1CN([C@H]2CCN3c4ccc5c(c4OC[C@@H]3C2)C(=O)N(C2CCC(=O)NC2=O)C5=O)CCN1c1ccc(Nc2cc(-c3ccnc(N4CCn5c(cc6c5CC(C)(C)C6)C4=O)c3CO)cn(C)c2=O)nc1.Cl (stereo partly drawn) [Example 18] | – | 93 | – |
